The source of these data is patent US20120238547A1, “2, 3, 6 - TRIAMINO SUBSTITUTED PYRIDINES AS KV7 (KCNQ) CHANNEL MODULATORS” (NEUROSEARCH A/S, priority 2009, published 2012).

A word on the EC50: it is the concentration that produces a half-maximal response. Lower therefore signals an effect from little substance.

Assay [1] addresses T1, human Kv7.2+3 (Homo sapiens, UniProt O43525+O43526).
T1 construct: expressed in transfected cells; host or cells: HEK293
Description: Patch-clamp on HEK293 cell lines stably expressing human Kv7.2+3 channels. The format is cell-based. The conditions noted are these: current relative to baseline current defined as 100%. An excerpt: The effect obtained by these channel activators is described as a percentage increase in baseline current at a given concentration. The baseline current is defined as 100%, and an increase in current is expressed relative to this, i.e. an increase from 1 nA to 1.2 nA is reported as 120%.
(The patch-clamp technique gives a direct electrical read-out from membranes.)

Assay [2] addresses T1, human Kv7.2+3. Nature of the assay: FLIPR-based thallium (I) influx characterization of Kv7.2+3 modulators. The format is cell-based. The note with it: for EC50: HEK293 cells over-expressing human Kv7.2+3, Tl+ influx, BTC-AM, 50% of channel activity compared to retigabine control responses; for Efficacy: maximal response relative to the reference (retigabine) response. The procedure: This experiment determines the ability of a test compound to modulate the activity of Kv7.2+3 channels heterologously expressed in human HEK293 cells. The ability is determined relative to retigabine. The activity is determined using a standard thallium (I) sensitive assay, e.g. using a fluorometric method in a Fluorescent Image Plate Reader (FLIPR) as described below in more detail.
Full concentration/response curves are generated and EC50 values are calculated based on max values. EC50 values (Effective Concentration) represent the concentration of the test substance, at which 50% of the channel activity is obtained when compared to retigabine control responses. Maximal response determined relative to the reference (retigabine) response is calculated.
Human HEK293 cells over-expressing human Kv7.2+3 are grown in culture medium (DMEM supplemented with 10% foetal bovine serum), in polystyrene culture flasks ([…]) in a humidified atmosphere of 5% CO2 in air, at 37° C. Cell confluence should be 80-90% on day of plating. Cells are rinsed with 4 ml of PBS (phosphate buffered saline) and incubated 2 min with 1 ml of Trypsin-EDTA. After addition of 25 ml of culture medium cells are re-suspended by trituration with a 25 ml pipette.
The cells are seeded at a density of ˜3×10^6 cells/ml (25 μl/well) in blackwalled, clear bottom, 384-well plates pre-treated with 0.01 g/l poly-D-lysin (20 μl/well for ≧30 min). Plated cells were allowed to proliferate for 24 h before loading with dye.
BTC-AM (50 mg, Invitrogen) is added 25.5 μl DMSO. The BTC-AM stock solution (2 mM) is diluted to a final concentration of 2 μM in Cl^− free assay buffer (in mM: 140 Na^−-gluconate, 2.5 K^+-gluconate, 6 Ca2^+-gluconate, 1 Mg^2+ gluconate, 5 glucose, 10 HEPES, pH 7.3) containing 2 μM ouabain, 2 mM amaranth and 1 mM tartrazine. […]
After the loading period, the Tl^+-sensitive BTC fluorescence signal is measured over time using a FLIPR.
• Temperature: Room temp. • First addition: 12 μl test or control compound after 15 sec at a rate of 30 μl/sec and starting height of 20 μl • Second addition: 12 μl stimulus buffer (Cl^− free assay buffer supplemented with 1 mM Tl2SO4, 5 mM K2SO4 as well as the quenchers amaranth (2 mM) and tartrazine (1 mM)) is added after an additional 3 minutes at a rate of 30 μl/sec and starting height of 30 μl • Reading intervals: First sequence—3 sec×5, 2 sec×24 and 5 sec×25 • Second sequence—1 sec×5, 2 sec×24 and 5 sec×36 Addition plates (compound plate and stimulus plate) are placed in positions 2 and 3, respectively. […] Fluorescence obtained after stimulation is corrected for the mean basal fluorescence (in Cl^− free assay buffer). […]

In the case of `Cc1ccoc1C(=O)Nc1c(C)cc(N2CCCOCC2)nc1N1CC[C@@H](F)C1` [Compound 1.1, 3-Methyl-furan-2-carboxylic acid [2-((R)-3-fluoro-pyrrolidin-1-yl)-4-methyl-6-[1,4]oxazepan-4-yl-pyridin-3-yl]-amide], the “IK (%) conc. 0.3 μM, −30 mV, 20 ms” value on human Kv7.2+3 [1] is 293 (n = 2) %. For the same molecule, at human Kv7.2+3 [2], the EC50 turned out to be 1200 nM and the Efficacy turned out to be 98%.
In the case of `Cc1ccoc1C(=O)Nc1c(C)cc(N2CCOCC2)nc1N1CC[C@@H](F)C1` [Compound 1.2, 3-Methyl-furan-2-carboxylic acid [2-((R)-3-fluoro-pyrrolidin-1-yl)-4-methyl-6-morpholin-4-yl-pyridin-3-yl]-amide], the “IK (%) conc. 0.03 μM, −30 mV, 20 ms” value on human Kv7.2+3 [1] (0.03 μM) is on record as 136%. For the same molecule, the “IK (%) conc. 0.3 μM, −30 mV, 20 ms” value on human Kv7.2+3 [1] is given as 428 (n = 5) %. Also, at human Kv7.2+3 [2], a half-maximal response (EC50) required 190 nM and the Efficacy is listed as 98%.
